Measurements published in patent publication US6770596B1, “Fused tricyclic compounds, process for their preparation, and herbicidal compositions containing them” (Ishihara Sangyo Kaisha Ltd., priority 2002, dated 2004).

What was measured:
Assay type in all cases: in vivo
[1] = test system: cocklebur (Xanthium strumariunt, XAS); experiment: Post-emerge test, cocklebur; settings: 250 g ai/ha, 14 days after application, rating scale 0-100 (0 no damage, 100 complete death)
Text: (§1) A standard greenhouse herbicide activity screening system was used to evaluate the herbicidal efficacy and crop safety of these test compounds. Seven broadleaf weed species including redroot pigweed (Amaranthus retroflexus, AMR), velvetleaf (Abutilon theophrasti, ABT), sicklepod (Cassia obtusifolia, CAO), ivyleaf morningglory (Ipomoea hederacea, IPH), lambsquarters (Chenopodium album, CHA), common ragweed (Ambrosia artemisiifolia L., AML), and cocklebur (Xanthium strumariunt, XAS) were used as test species. Four grass weed species including green foxtail (Setaria viridis, SEV), barnyardgrass (Echinachloa crus-galli, ECC), johnsongrass (Sorghum halepense, SOH), and large crabgrass (Digitaria sanguinalis, DIS) were also used. In addition, four crop species, field corn (Zea mays L., var. Dekalb 535, CORN), soybean (Glycine max L., var. Pella 86, SOY), upland rice (Oryza sp., var.Tebonnet, RICE), and wheat (Triticum aestivum) were included all plants were grown in 10 cm square plastic pots which were filled with a sandy loam soil mix.
(§2) For pre-emerge tests, seeds were planted one day prior to application of the test compounds. All test compounds were dissolved in acetone and applied to the test pots in a volume of 187 l/ha. Test materials were applied at rates ranging from 8 g ai/ha to 1000 g ai/ha using a track sprayer equipped with a TJ8001E even flow flat fan spray nozzle. This application simulates a typical commercial field herbicide application.
(§3) For post-emerge tests, seeds were planted 8-21 days prior to the test to allow emergence and good foliage development prior to application of the test substances. At the time of the post-emerge application, plants of all species were usually at the 2-3 leaf stage of development. In the postemerge test, a commercial non-ionic surfactant was also included (0.25% v/v) to enhance wetting of the leaf surfaces of target plants.
(§4) At 14 days after application of the test materials, phytotoxicity ratings were recorded. A rating scale of 0-100 was used for both pre and post emerge tests as previously described in Research Methods in Weed Science, 2nd edition, B, Truelove, Ed., Southern Weed Science Society, Auburn University, Auburn, Ala., 1977. Briefly, “0” corresponds to no damage and “100” corresponds to complete death of all plants in the test unit. This scale was used both to determine efficacy against weed species and damage to crop species. Herbicide activity data for various compounds of this invention, which are shown by compound No. in Tables 1-3, are shown in Tables 5 and 6.

[2] = test system: ivyleaf morningglory (Ipomoea hederacea, IPH); experiment: Post-emerge test, ivyleaf morningglory; settings: 250 g ai/ha, 14 days after application, rating scale 0-100 (0 no damage, 100 complete death)
Text: as §1, §2, §3, §4

[3] = test system: common ragweed (Ambrosia artemisiifolia L., AML); experiment: Post-emerge test, common ragweed; settings: 250 g ai/ha, 14 days after application, rating scale 0-100 (0 no damage, 100 complete death)
Text: as §1, §2, §3, §4

[4] = test system: johnsongrass (Sorghum halepense, SOH); experiment: Pre-emerge test, johnsongrass; settings: 250 g ai/ha, 14 days after application, rating scale 0-100 (0 no damage, 100 complete death)
Text: as §1, §2, §4

[5] = test system: barnyardgrass (Echinachloa crus-galli, ECC); experiment: Post-emerge test, barnyardgrass; settings: 250 g ai/ha, 14 days after application, rating scale 0-100 (0 no damage, 100 complete death)
Text: as §1, §2, §3, §4

[6] = test system: ivyleaf morningglory (Ipomoea hederacea, IPH); experiment: Pre-emerge test, ivyleaf morningglory; settings: 250 g ai/ha, 14 days after application, rating scale 0-100 (0 no damage, 100 complete death)
Text: as §1, §2, §4

[7] = test system: soybean (Glycine max L., var. Pella 86, SOY); experiment: Post-emerge test, crop damage soybean; settings: post-emerge, 250 g ai/ha, 14 days after application, rating scale 0-100 (0 no damage, 100 complete death)
Text: as §1, §2, §3, §4

[8] = test system: large crabgrass (Digitaria sanguinalis, DIS); experiment: Pre-emerge test, large crabgrass; settings: 250 g ai/ha, 14 days after application, rating scale 0-100 (0 no damage, 100 complete death)
Text: as §1, §2, §4

[9] = test system: upland rice (Oryza sp., var.Tebonnet, RICE); experiment: Post-emerge test, crop damage upland rice; settings: post-emerge, 250 g ai/ha, 14 days after application, rating scale 0-100 (0 no damage, 100 complete death)
Text: as §1, §2, §3, §4

[10] = test system: green foxtail (Setaria viridis, SEV); experiment: Pre-emerge test, green foxtail; settings: 250 g ai/ha, 14 days after application, rating scale 0-100 (0 no damage, 100 complete death)
Text: as §1, §2, §4

[11] = test system: johnsongrass (Sorghum halepense, SOH); experiment: Post-emerge test, johnsongrass; settings: 250 g ai/ha, 14 days after application, rating scale 0-100 (0 no damage, 100 complete death)
Text: as §1, §2, §3, §4

[12] = test system: lambsquarters (Chenopodium album, CHA); experiment: Post-emerge test, lambsquarters; settings: 250 g ai/ha, 14 days after application, rating scale 0-100 (0 no damage, 100 complete death)
Text: as §1, §2, §3, §4

[13] = test system: lambsquarters (Chenopodium album, CHA); experiment: Pre-emerge test, lambsquarters; settings: 250 g ai/ha, 14 days after application, rating scale 0-100 (0 no damage, 100 complete death)
Text: as §1, §2, §4

[14] = test system: wheat (Triticum aestivum); experiment: Post-emerge test, crop damage wheat; settings: post-emerge, 250 g ai/ha, 14 days after application, rating scale 0-100 (0 no damage, 100 complete death)
Text: as §1, §2, §3, §4

[15] = test system: field corn (Zea mays L., var. Dekalb 535, CORN); experiment: Pre-emerge test, crop damage field corn; settings: pre-emerge, 250 g ai/ha, 14 days after application, rating scale 0-100 (0 no damage, 100 complete death)
Text: as §1, §2, §4

[16] = test system: sicklepod (Cassia obtusifolia, CAO); experiment: Post-emerge test, sicklepod; settings: 250 g ai/ha, 14 days after application, rating scale 0-100 (0 no damage, 100 complete death)
Text: as §1, §2, §3, §4

[17] = test system: field corn (Zea mays L., var. Dekalb 535, CORN); experiment: Post-emerge test, crop damage field corn; settings: post-emerge, 250 g ai/ha, 14 days after application, rating scale 0-100 (0 no damage, 100 complete death)
Text: as §1, §2, §3, §4

[18] = test system: sicklepod (Cassia obtusifolia, CAO); experiment: Pre-emerge test, sicklepod; settings: 250 g ai/ha, 14 days after application, rating scale 0-100 (0 no damage, 100 complete death)
Text: as §1, §2, §4

[19] = test system: soybean (Glycine max L., var. Pella 86, SOY); experiment: Pre-emerge test, crop damage soybean; settings: pre-emerge, 250 g ai/ha, 14 days after application, rating scale 0-100 (0 no damage, 100 complete death)
Text: as §1, §2, §4

[20] = test system: upland rice (Oryza sp., var.Tebonnet, RICE); experiment: Pre-emerge test, crop damage upland rice; settings: pre-emerge, 250 g ai/ha, 14 days after application, rating scale 0-100 (0 no damage, 100 complete death)
Text: as §1, §2, §4

[21] = test system: cocklebur (Xanthium strumariunt, XAS); experiment: Pre-emerge test, cocklebur; settings: 250 g ai/ha, 14 days after application, rating scale 0-100 (0 no damage, 100 complete death)
Text: as §1, §2, §4

[22] = test system: redroot pigweed (Amaranthus retroflexus, AMR); experiment: Post-emerge test, redroot pigweed; settings: 250 g ai/ha, 14 days after application, rating scale 0-100 (0 no damage, 100 complete death)
Text: as §1, §2, §3, §4

[23] = test system: large crabgrass (Digitaria sanguinalis, DIS); experiment: Post-emerge test, large crabgrass; settings: 250 g ai/ha, 14 days after application, rating scale 0-100 (0 no damage, 100 complete death)
Text: as §1, §2, §3, §4

[24] = test system: common ragweed (Ambrosia artemisiifolia L., AML); experiment: Pre-emerge test, common ragweed; settings: 250 g ai/ha, 14 days after application, rating scale 0-100 (0 no damage, 100 complete death)
Text: as §1, §2, §4

[25] = test system: barnyardgrass (Echinachloa crus-galli, ECC); experiment: Pre-emerge test, barnyardgrass; settings: 250 g ai/ha, 14 days after application, rating scale 0-100 (0 no damage, 100 complete death)
Text: as §1, §2, §4

[26] = test system: wheat (Triticum aestivum); experiment: Pre-emerge test, crop damage wheat; settings: pre-emerge, 250 g ai/ha, 14 days after application, rating scale 0-100 (0 no damage, 100 complete death)
Text: as §1, §2, §4

[27] = test system: redroot pigweed (Amaranthus retroflexus, AMR); experiment: Pre-emerge test, redroot pigweed; settings: 250 g ai/ha, 14 days after application, rating scale 0-100 (0 no damage, 100 complete death)
Text: as §1, §2, §4

[28] = test system: green foxtail (Setaria viridis, SEV); experiment: Post-emerge test, green foxtail; settings: 250 g ai/ha, 14 days after application, rating scale 0-100 (0 no damage, 100 complete death)
Text: as §1, §2, §3, §4

[29] = test system: velvetleaf (Abutilon theophrasti, ABT); experiment: Post-emerge test, velvetleaf; settings: 250 g ai/ha, 14 days after application, rating scale 0-100 (0 no damage, 100 complete death)
Text: as §1, §2, §3, §4

[30] = test system: velvetleaf (Abutilon theophrasti, ABT); experiment: Pre-emerge test, velvetleaf; settings: 250 g ai/ha, 14 days after application, rating scale 0-100 (0 no damage, 100 complete death)
Text: as §1, §2, §4

Structure (SMILES) | Post-emerge Herbicidal Activity XAS (phytotoxicity rating) [1] | Post-emerge Herbicidal Activity IPH (phytotoxicity rating) [2] | Post-emerge Herbicidal Activity AML (phytotoxicity rating) [3] | Pre-emerge Herbicidal Activity SOH (phytotoxicity rating) [4] | Post-emerge Herbicidal Activity ECC (phytotoxicity rating) [5] | Pre-emerge Herbicidal Activity IPH (phytotoxicity rating) [6] | Post-emerge crop damage SOY (phytotoxicity rating) [7] | Pre-emerge Herbicidal Activity DIS (phytotoxicity rating) [8] | Post-emerge crop damage RICE (phytotoxicity rating) [9] | Pre-emerge Herbicidal Activity SEV (phytotoxicity rating) [10] | Post-emerge Herbicidal Activity SOH (phytotoxicity rating) [11] | Post-emerge Herbicidal Activity CHA (phytotoxicity rating) [12] | Pre-emerge Herbicidal Activity CHA (phytotoxicity rating) [13] | Post-emerge crop damage WHEAT (phytotoxicity rating) [14] | Pre-emerge crop damage CORN (phytotoxicity rating) [15] | Post-emerge Herbicidal Activity CAO (phytotoxicity rating) [16] | Post-emerge crop damage CORN (phytotoxicity rating) [17] | Pre-emerge Herbicidal Activity CAO (phytotoxicity rating) [18] | Pre-emerge crop damage SOY (phytotoxicity rating) [19] | Pre-emerge crop damage RICE (phytotoxicity rating) [20] | further results
CC1Oc2cc(F)c(-c3nn(C)c(OC(F)F)c3Cl)c3c2N(C1=O)C(C)C(=O)N3 (mixture of isomers) [1-57] | 100 | 100 | 80 | 100 | 80 | 100 | 100 | 100 | 65 | 100 | 40 | 100 | 100 | 50 | 50 | 100 | 10 | 100 | 50 | 65 | Pre-emerge Herbicidal Activity XAS (phytotoxicity rating) [21]: 95; Post-emerge Herbicidal Activity AMR (phytotoxicity rating) [22]: 100; Post-emerge Herbicidal Activity DIS (phytotoxicity rating) [23]: 10; Pre-emerge Herbicidal Activity AML (phytotoxicity rating) [24]: 100; Pre-emerge Herbicidal Activity ECC (phytotoxicity rating) [25]: 100; Pre-emerge crop damage WHEAT (phytotoxicity rating) [26]: 35; Pre-emerge Herbicidal Activity AMR (phytotoxicity rating) [27]: 100; Post-emerge Herbicidal Activity SEV (phytotoxicity rating) [28]: 99; Post-emerge Herbicidal Activity ABT (phytotoxicity rating) [29]: 100; Pre-emerge Herbicidal Activity ABT (phytotoxicity rating) [30]: 100
Cn1c(C(F)(F)F)cc(=O)n(-c2c(F)cc3c4c2NC(=O)CN4C(=O)CO3)c1=O [1-1, 8-[1-methyl-6-(trifluoromethyl)-2,4-(1H, 3H)-pyrimidinedione-3-yl]-9-fluoro-5H-pyrazino[1,2,3-de]-1,4-benzoxazine-3,6-(2H, 7H)-dione] | 100 | 100 | 65 | 100 | 60 | 100 | 95 | 100 | 99 | 100 | 25 | 98 | 100 | 25 | 100 | 40 | 0 | 100 | 100 | 100 | Pre-emerge Herbicidal Activity XAS (phytotoxicity rating) [21]: 99; Post-emerge Herbicidal Activity AMR (phytotoxicity rating) [22]: 100; Post-emerge Herbicidal Activity DIS (phytotoxicity rating) [23]: 0; Pre-emerge Herbicidal Activity AML (phytotoxicity rating) [24]: 100; Pre-emerge Herbicidal Activity ECC (phytotoxicity rating) [25]: 100; Pre-emerge crop damage WHEAT (phytotoxicity rating) [26]: 100; Pre-emerge Herbicidal Activity AMR (phytotoxicity rating) [27]: 100; Post-emerge Herbicidal Activity SEV (phytotoxicity rating) [28]: 95; Post-emerge Herbicidal Activity ABT (phytotoxicity rating) [29]: 100; Pre-emerge Herbicidal Activity ABT (phytotoxicity rating) [30]: 100
